The values below are quoted from earlier work in patent US20080146639A1, “Pharmaceutical Combination of Angiotensin II Antagonists and Angiotensin I Converting Enzyme Inhibitors” (Boehringer Ingelheim Pharma GmbH & Co Kg., priority 2000, published 2008).

The conditions of the data set: treatment with ACE inhibitor ramipril; HOPE study (New Engl. J. Med., Jan. 20, 2000).

On to `CCOC(=O)[C@H](CCc1ccccc1)N[C@@H](C)C(=O)N1[C@H](C(=O)O)C[C@@H]2CCC[C@@H]21` [ramipril], for which the “reduction of the risk of the combined primary cardiovascular outcome” value is 22%.
